Measured values: patent US9170257B2 (priority 2012, dated 2015)
Read-outs that look alike come from different tables or passages of the source.

Columns and labels:
[1] = Plasma pharmacokinetics of curcumin and THC during and after intravenous infusion of liposomal curcumin; assay type: in vivo, Beagle dogs
Method: (§1) The results and analysis for the study are presented for intravenous infusion dosing of a total dose of 10 mg/kg infused over a period of either 2 or 8 hours. Plasma levels of curcumin and its metabolite, THC were measured at timed intervals post-dosing.
For the 2 hour infusion, blood samples were taken at predose and 0.25, 0.5, 1.5 and at 2 hours during infusion and at 15 minutes post-infusion. For the 8 hour infusion, blood samples were taken at predose and 0.25, 0.5, 1.5, […] and at 8 hours during infusion and at 15 minutes post-infusion.
(§2) Bioanalysis was performed on two sets of samples, one set that was treated with phosphoric acid and one set that was not treated with phosphoric acid. […] Values that were below the limit of quantification were assigned a value of 0.
Plasma concentration vs. time profiles were analyzed using (unless otherwise stated) the data from 4 dogs. Plasma profiles for the test articles are presented as the mean data±SE of 4 dogs. Average plasma concentrations were used to perform the PK analysis. Plasma concentration vs. time profiles were analyzed and the PK parameters estimated using WinNonlin Version 5.2.1 employing the intravenous infusion model with first order elimination. Unless stated otherwise, the plasma concentration-time profiles for the test articles are presented as the mean data±SE of 4 dogs.

[2] = Plasma, urine and bile levels of curcumin and THC 15 minutes post-infusion; assay type: in vivo, Beagle dogs; details: for Plasma level / concentration at 15 min: mean±SE; for concentration at 15 min / Kp: both sexes, dog, in vivo, 10 mg/kg; for concentration at 15 min: Beagle; for Kp: beagle
Method: as §1, §2
Fifteen minutes following either the 2 hour or 8 hour infusion, blood, urine and bile samples were taken, prior to the dogs being necropsied and organs removed for the isolation of tissues. Multiple samples of tissue weighing approximately 1 gram were removed and snap frozen in the presence or absence of phosphoric acid (H3PO4). For all tissue samples, the levels of curcumin and THC were determined using a method developed by the Bioanalytical Department at Nucro-Technics. […] Values that were below the limit of quantification were assigned a value of 0. […] Tissue distribution data was analyzed using, unless stated, the data from 4 dogs and are presented as the mean±standard error (S.E.).

[3] = both sexes, Beagle, dog, in vivo, 10 mg/kg, 1.25 mg/kg/hr, mean±SE, read-out: [Plasma + PO4]
[4] = both sexes, Beagle, dog, in vivo, 10 mg/kg, 1.25 mg/kg/hr, mean±SE, read-out: [Plasma]
[5] = both sexes, Beagle, dog, in vivo, 10 mg/kg, 5 mg/kg/hr, mean±SE, read-out: [Plasma + PO4]
[6] = both sexes, Beagle, dog, in vivo, 10 mg/kg, 5 mg/kg/hr, mean±SE, read-out: [Plasma]

With `COc1cc(CCC(=O)CC(=O)CCc2ccc(O)c(OC)c2)ccc1O` [THC, tetrahydrocurcumin] the Ke ([1]; 2 hour i.v. infusion, total dose 10 mg/kg, fitted) was 1.4 h⁻¹, the “ratio of THC to curcumin based on AUC” value ([1]; 2 hour infusion) was 9.6 and the “ratio of THC to curcumin based on AUC” value ([1]; 8 hour infusion) was 6.3. For the same molecule, the “Plasma THC levels higher than curcumin” value ([1]; at both infusion rates (2 and 8 hours)) was 6.3-9.6 fold, the concentration at 15 min [1, 3] was 59 ± 24 ng/mL and the concentration at 15 min [1, 4] was 72 ± 15 ng/mL. It also gave a concentration at 30 min [1, 3] of 121 ± 28 ng/mL, a concentration at 30 min [1, 4] of 63 ± 15 ng/mL and a concentration at 90 min [1, 3] of 293 ± 73 ng/mL. For the same molecule, the concentration at 90 min [1, 4] was 64 ± 14 ng/mL, the concentration at 2 hr [1, 3] was 226 ± 64 ng/mL and the concentration at 2 hr [1, 4] was 68 ± 11 ng/mL. It also gave a concentration at 4 hr [1, 3] of 193 ± 127 ng/mL, a concentration at 4 hr [1, 4] of 77 ± 8 ng/mL and a concentration at 6 hr [1, 3] of 64 ± 10 ng/mL. The concentration at 6 hr [1, 4] was 0 ng/mL, the concentration at 8 hr [1, 3] was 62 ± 26 ng/mL and the concentration at 8 hr [1, 4] was 67 ± 29 ng/mL. The concentration at 15 min [1, 5] was 284 ± 89 ng/mL, the concentration at 15 min [1, 6] was 483 ± 50 ng/mL and the concentration at 30 min [1, 5] was 1120 ± 318 ng/mL. For the same molecule, the concentration at 30 min [1, 6] was 566 ± 77 ng/mL, the concentration at 90 min [1, 5] was 2350 ± 441 ng/mL and the concentration at 90 min [1, 6] was 891 ± 238 ng/mL. The concentration at 2 hr [1, 6] was 454 ± 79 ng/mL, the AUC ([1]; both sexes, Beagle, dog, in vivo, iv, 10 mg/kg, 2 hr infusion + phosphate, AUC to 15 min post-infusion, read-out: AUC) was 3800 ng·h/mL and the AUC ([1]; both sexes, Beagle, dog, in vivo, iv, 10 mg/kg, 8 hr infusion + Phosphate, AUC to 15 min post-infusion, read-out: AUC) was 1170 ng·h/mL. It also gave an AUC ([1]; both sexes, Beagle, dog, in vivo, iv, 10 mg/kg, 8 hr infusion, 10 mg/kg, plasma without phosphoric acid, AUC to 15 min post-infusion, read-out: AUC) of 411 ng·h/mL, a Cmax ([1]; both sexes, Beagle, dog, in vivo, iv, 10 mg/kg, 8 hr infusion, plasma without phosphoric acid, observed, read-out: Cmax) of 77 ng/mL and a concentration at 2 h ([1]; both sexes, beagle, dog, in vivo, 10 mg/kg, 5 mg/kg/hr, 2 hr (end of infusion), mean±SE, read-out: [Plasma + PO4]) of 2980 ± 852 ng/mL. For the same molecule, the AUC ([1]; both sexes, beagle, dog, in vivo, iv, 10 mg/kg, 2 hour i.v. infusion, total dose 10 mg/kg, fitted, first-order elimination infusion model, read-out: AUC (estimated PK parameter)) was 5180 ng·h/mL, the Cmax ([1]; both sexes, beagle, dog, in vivo, iv, 10 mg/kg, 2 hour i.v. infusion, total dose 10 mg/kg, fitted, first-order elimination infusion model, read-out: Cmax (estimated PK parameter)) was 2430 ng/mL and the AUC ([1]; both sexes, beagle, dog, in vivo, iv, 10 mg/kg, 2 hour infusion, + phosphoric acid, read-out: calculated AUC (observed)) was 3800 ng·h/mL. It also gave a Cmax ([1]; both sexes, beagle, dog, in vivo, iv, 10 mg/kg, 2 hr infusion + phosphate, observed, read-out: Cmax) of 2980 ng/mL, an AUC ([1]; both sexes, beagle, dog, in vivo, iv, 10 mg/kg, 2 hr infusion, 10 mg/kg, plasma without phosphoric acid, AUC to 15 min post-infusion, read-out: AUC) of 1320 ng·h/mL and a Cmax ([1]; both sexes, beagle, dog, in vivo, iv, 10 mg/kg, 2 hr infusion, plasma without phosphoric acid, observed, read-out: Cmax) of 891 ng/mL. It also gave a Cmax ([1]; both sexes, beagle, dog, in vivo, iv, 10 mg/kg, 8 hr infusion + Phosphate, observed, read-out: Cmax) of 293 ng/mL, an MRT ([1]; both sexes, beagle, dog, in vivo, iv, 2 hour i.v. infusion, total dose 10 mg/kg, fitted, read-out: MRT) of 42 min and a half-life ([1]; both sexes, beagle, dog, in vivo, iv, 2 hour i.v. infusion, total dose 10 mg/kg, fitted, read-out: t1/2(e) (converted)) of 30 min. The “ratio of plasma THC to curcumin” value ([1]; two infusion rates) was 6.3-9.6, the Plasma level ([2]; 15 min after 2 hour infusion, + H3PO4) was 1167 ± 379 ng/mL and the Plasma level ([2]; 15 min after 8 hour infusion, no H3PO4) was 20 ± 4^2 ng/mL. The concentration at 15 min ([2]; 15 min after 2 hour infusion, + H3PO4, read-out: Bile level) was 391 ± 197 ng/mL, the concentration at 15 min ([2]; 15 min after 2 hour infusion, + H3PO4, read-out: Urine level) was 3590 ± 1080 ng/mL and the concentration at 15 min ([2]; 15 min after 2 hour infusion, no H3PO4, read-out: Bile level) was 187 ± 74 ng/mL. The concentration at 15 min ([2]; 15 min after 2 hour infusion, no H3PO4, read-out: Plasma level) was 38 ± 4 ng/mL, the concentration at 15 min ([2]; 15 min after 2 hour infusion, no H3PO4, read-out: Urine level) was 6420 ± 1450 ng/mL and the concentration at 15 min ([2]; 15 min after 8 hour infusion, + H3PO4, read-out: Bile level) was 168 ± 53 ng/mL. For the same molecule, the concentration at 15 min ([2]; 15 min after 8 hour infusion, + H3PO4, read-out: Plasma level) was 142 ± 122 ng/mL, the concentration at 15 min ([2]; 15 min after 8 hour infusion, + H3PO4, read-out: Urine level) was 621 ± 206 ng/mL and the concentration at 15 min ([2]; 15 min after 8 hour infusion, no H3PO4, read-out: Bile level) was 84 ± 12 ng/mL. The concentration at 15 min ([2]; 15 min after 8 hour infusion, no H3PO4, read-out: Urine level) was 2450 ± 84 ng/mL, the Kp ([2]; higher infusion rate (5 mg/kg/hr), read-out: bile to plasma concentration ratio) was 1.2 and the Kp ([2]; higher infusion rate (5 mg/kg/hr), read-out: urine to plasma concentration ratio) was 4.4. The Kp ([2]; low infusion rate (1.25 mg/kg/hr), read-out: bile to plasma concentration ratio) was 0.3 and the Kp ([2]; low infusion rate (1.25 mg/kg/hr), read-out: urine to plasma concentration ratio) was 3.1.
